What was measured:
Type in all cases: functional
Escherichia coli = experiment: Antimicrobial activity against Escherichia coli by Kirby-Bauer growth inhibition assay
Candida albicans = experiment: Antimicrobial activity against Candida albicans by Kirby-Bauer growth inhibition assay
Micrococcus luteus = experiment: Antimicrobial activity against Micrococcus luteus by Kirby-Bauer growth inhibition assay

For `CC1(C)C[C@H]2C=C(C=O)[C@]3(C=O)C[C@]3(C)[C@H]2C1` [ISOVELLERAL], the Activity (Escherichia coli) was 15 µg, the Activity (Candida albicans) was 2 µg and the Activity (Micrococcus luteus) was 2 µg.

Work on `CC1(C)C[C@H]2C=C3COC(O)[C@]34C[C@]4(C)[C@H]2C1` (stereo not given in full) [ISOVELLEROL] yielded an Activity (Escherichia coli) of over 1000 µg, an Activity (Candida albicans) of 50 µg and an Activity (Micrococcus luteus) of 300 µg.

Compound `C[C@H]1C=C(C=O)C(C=O)=C[C@@H]2CC(C)(C)C[C@@H]21` [LACTARANE] has an Activity (Escherichia coli) of 50 µg, an Activity (Candida albicans) of 2 µg and an Activity (Micrococcus luteus) of 15 µg.

`C[C@H]1C=C(CO)C(CO)=C[C@@H]2CC(C)(C)C[C@@H]21` [VELLERDIOL] gave an Activity (Escherichia coli) of over 1000 µg, an Activity (Candida albicans) of over 1000 µg and an Activity (Micrococcus luteus) of over 1000 µg.

`C[C@H]1C=C(C=O)C(CO)=C[C@@H]2CC(C)(C)C[C@@H]21` [VELLEROL] gave an Activity (Escherichia coli) of over 1000 µg, an Activity (Candida albicans) of 100 µg and an Activity (Micrococcus luteus) of 300 µg.

From ChEMBL document CHEMBL1151648, “The Sesquiterpenes of Lactarius vellereus and Their Role in a Proposed Chemical Defense System” (J Nat Prod, 1985)
